Literature values, collected in PubChem BioAssay AID1259409 (Chemical Carcinogenesis Research Information System (CCRIS), 2018).

Test system: rodent chemically induced tumor inhibition, incidence and multiplicity
Assay: CCRIS tumor inhibitor studies
Conditions: Promoter: NONE USED; for outcome: Dose [Inhibitor]: 3 MG/KG BW IN 0.1 ML CORN OIL 3/WK FOR DURATION OF EXPERIMENT BEGINNING 15 D POST CARCINOGEN DOSE, Target Tissue: Type of Lesion: MAMMARY GLAND: ADENOCARCINOMA, FIBROADENOMA, Dose [Carcinogen]: 5 OR 10 MG IN 0.5 ML CORN OIL ONCE

Structure (SMILES): CC(C)C[C@H]1C(=O)N2CCC[C@H]2[C@]2(O)O[C@](NC(=O)[C@@H]3C=C4c5cccc6[nH]c(Br)c(c56)C[C@H]4N(C)C3)(C(C)C)C(=O)N12
- tumour outcome (control, treated, inhibition, significance) (Carcinogen: DIMETHYLBENZ[A]ANTHRACENE, 57-97-6, Dose [Inhibitor]: 3 MG/KG BW (0.1 ML) IN CORN OIL 5/WK OR 6/WK FOR 2 WK (11 INJECTIONS) BEGINNING 15 D PRIOR TO CARCINOGEN DOSE AT 35 D OF, Route [Inhibitor]: SUBCUTANEOUS, Species: RAT, Strain/Sex: SPRAGUE-DAWLEY/FEMALE, Target Tissue: Type of Lesion: MAMMARY GLAND: TUMOR, Dose [Carcinogen]: 5 MG/RAT IN CORN OIL ONCE): 13/22 (59%), 11/24 (46%), 22%, not significant
- outcome (Carcinogen: DIMETHYLBENZ[A]ANTHRACENE, 57-97-6, MAINTAINED ON 0.5% FA, Route [Inhibitor]: SUBCUTANEOUS, Species: RAT, Strain/Sex: SPRAGUE-DAWLEY/FEMALE): 34%, 0%, 100%, not calculated (low dose carcinogen); 38%, 18%, 53%, not calculat
- outcome (Carcinogen: DIMETHYLBENZ[A]ANTHRACENE, 57-97-6, MAINTAINED ON 20% FAT, Route [Inhibitor]: SUBCUTANEOUS, Species: RAT, Strain/Sex: SPRAGUE-DAWLEY/FEMALE): 56%, 0%, 100%, not calculated (low dose carcinogen); 58%, 19%, 67%, not calculat
- tumour outcome (control, treated, inhibition, significance) (Carcinogen: DIMETHYLBENZ[A]ANTHRACENE, 57-97-6, Dose [Inhibitor]: 400 UG/100 G BW TOGETHER WITH 25 UG TAMOXIFEN/100 G BW 1/D FOR 20 WK BEGINNING 3 D POST CARCINOGEN DOSE (STUDY DURATION:, Route [Inhibitor]: SUBCUTANEOUS, Species: RAT, Strain/Sex: SPRAGUE-DAWLEY/FEMALE, Target Tissue: Type of Lesion: MAMMARY GLAND: CARCINOMA, Dose [Carcinogen]: 5 MG ONCE AT 53 D OF AGE): 85%, 21%, 75%, p<0.001 at 20 wk
- tumour outcome (control, treated, inhibition, significance) (Carcinogen: DIMETHYLBENZ[A]ANTHRACENE, 57-97-6, Dose [Inhibitor]: 400 UG/100 G BW TOGETHER WITH 25 UG TAMOXIFEN/100 G BW 1/D FOR 20 WK BEGINNING 3 D POST CARCINOGEN DOSE (STUDY DURATION:, Route [Inhibitor]: SUBCUTANEOUS, Species: RAT, Strain/Sex: SPRAGUE-DAWLEY/FEMALE, Target Tissue: Type of Lesion: MAMMARY GLAND: CARCINOMA, Dose [Carcinogen]: 10 MG ONCE AT 53 D OF AGE): 90%, 10%, 89%, p<0.001 at 12 wks
- tumour outcome (control, treated, inhibition, significance) (Carcinogen: DIMETHYLBENZ[A]ANTHRACENE, 57-97-6, Dose [Inhibitor]: 400 UG/100 G BW TOGETHER WITH 25 UG TAMOXIFEN/100 G BW 1/D FOR 26 WK BEGINNING 3 D POST CARCINOGEN DOSE (STUDY DURATION:, Route [Inhibitor]: SUBCUTANEOUS, Species: RAT, Strain/Sex: SPRAGUE-DAWLEY/FEMALE, Target Tissue: Type of Lesion: MAMMARY GLAND: CARCINOMA, Dose [Carcinogen]: 20 MG ONCE AT 53 D OF AGE): 100%, 12%, 88%, p<0.001 at 11 wks
- tumour outcome (control, treated, inhibition, significance) (Carcinogen: DIMETHYLBENZ[A]ANTHRACENE, 57-97-6, Dose [Inhibitor]: 400 UG/100 G BW TOGETHER WITH 25 UG TAMOXIFEN/100 G BW 1/D PLUS 68 MG RETINYL ACETATE/KG OF DIET, BEGINNING 3 D POST CAR, Route [Inhibitor]: SUBCUTANEOUS, Species: RAT, Strain/Sex: SPRAGUE-DAWLEY/FEMALE, Target Tissue: Type of Lesion: MAMMARY GLAND: CARCINOMA, Dose [Carcinogen]: 20 MG ONCE AT 53 D OF AGE): 100%, 3%, 97%, p<0.001 at 11 wk
- tumour outcome (control, treated, inhibition, significance) (Carcinogen: DIMETHYLBENZ[A]ANTHRACENE, 57-97-6, Dose [Inhibitor]: 400 UG/100 G BW TOGETHER WITH 25 UG TAMOXIFEN/100 G BW 1/D PLUS 204 MG RETINYL ACETATE/KG OF DIET, BEGINNING 3 D POST CA, Route [Inhibitor]: SUBCUTANEOUS, Species: RAT, Strain/Sex: SPRAGUE-DAWLEY/FEMALE, Target Tissue: Type of Lesion: MAMMARY GLAND: CARCINOMA, Dose [Carcinogen]: 10 MG ONCE AT 53 D OF AGE): 90%, 5%, 94%, p<0.001 at 12 wk
- tumour outcome (control, treated, inhibition, significance) (Carcinogen: DIMETHYLBENZ[A]ANTHRACENE, 57-97-6, Dose [Inhibitor]: 400 UG/100 G BW TOGETHER WITH 25 UG TAMOXIFEN/100 G BW 1/D PLUS 328 MG RETINYL ACETATE/KG DIET BEGINNING 3 D POST CARCIN, Route [Inhibitor]: SUBCUTANEOUS, Species: RAT, Strain/Sex: SPRAGUE-DAWLEY/FEMALE, Target Tissue: Type of Lesion: MAMMARY GLAND: CARCINOMA, Dose [Carcinogen]: 5 MG ONCE AT 53 D OF AGE): 85%, 5%, 94%, p<0.001 at 20 wk
- tumour outcome (control, treated, inhibition, significance) (Carcinogen: ENOVID (NORETHYNODREL WITH MESTRANOL), 8015-30-3, Dose [Inhibitor]: 0.1 MG 1/D FOR 21 MO BEGINNING CONCURRENTLY WITH CARCINOGEN DOSE (STUDY DURATION: 21 MO), Route [Inhibitor]: SUBCUTANEOUS, Species: MOUSE, Strain/Sex: C3H/FEMALE, Target Tissue: Type of Lesion: MAMMARY GLAND: CARCINOMA, Dose [Carcinogen]: 0.1 MG 2/WK FOR 21 MO): 30/100 (30%), 10/100 (10%), 67%, p<0.001
- tumour outcome (control, treated, inhibition, significance) (Carcinogen: ESTRONE, 53-16-7, PROGESTERONE, 57-83-0, Carcinogen: ESTRONE, 53-16-7, PROGESTERONE, 57-83-0, Dose [Inhibitor]: 100 UG 1/D FOR 13 WK BEGINNING CONCURRENTLY WITH CARCINOGEN DOSE (STUDY DURATION: NOT STATED, DATA INDICATES 13 WK), Route [Inhibitor]: SUBCUTANEOUS, Species: MOUSE, Strain/Sex: STRAIN-GR/FEMALE, Target Tissue: Type of Lesion: MAMMARY GLAND: PAPILLARY CARCINOMA, Dose [Carcinogen]: 0.5 MG/L FOR 13 WK IN DRINKING WATER BEGINNING AT 15 WK OF AGE, THEN 30 MG PELLET IMPLANT 1/MO BEGINNING AT 15 WK OF AGE): 58/119 (49%), 34/119 (29%), 41%, p<0.005
- tumour outcome (control, treated, inhibition, significance) (Carcinogen: ISONIAZID, 54-85-3, Dose [Inhibitor]: 5000 PPM IN DIET STARTING 1 WK PRIOR TO ADMINISTRATION OF CARCINOGEN UNTIL END OF EXPERIMENT (STUDY DURATION: APPROXIMAT, Route [Inhibitor]: ORAL, Species: MOUSE, Strain/Sex: SWISS/MALE, FEMALE, Target Tissue: Type of Lesion: LIVER AND LUNG: COMBINED TUMORS, Dose [Carcinogen]: 1.1 MG/D 5 D/WK UNTIL 25 MO OF AGE): 16/29 (55%), 4/20 (20%), 64%, p<o.o5
- tumour outcome (control, treated, inhibition, significance) (Carcinogen: N-METHYL-N'-NITRO-N-NITROSOGUANIDINE, 70-25-7, Dose [Inhibitor]: 0, 0.25 MG/KG AS A SUSPENSION IN OLIVE OIL 1/2 D BEGINNING POST CARCINOGEN DOSE AND CONTINUING FOR DURATION OF STUDY (ST, Route [Inhibitor]: SUBCUTANEOUS, Species: RAT, Strain/Sex: WISTAR/MALE, Target Tissue: Type of Lesion: STOMACH: ADENOCARCINOMA, Dose [Carcinogen]: 50 UG/ML IN DRINKING WATER FOR 25 WK): 12/19 (63%), 12/20 (60%), 5%, not calculated
- tumour outcome (control, treated, inhibition, significance) (Carcinogen: N-METHYL-N'-NITRO-N-NITROSOGUANIDINE, 70-25-7, Dose [Inhibitor]: 0, 0.5 MG/KG AS A SUSPENSION IN OLIVE OIL 1/2 D BEGINNING POST CARCINOGEN DOSE AND CONTINUING FOR DURATION OF STUDY (STU, Route [Inhibitor]: SUBCUTANEOUS, Species: RAT, Strain/Sex: WISTAR/MALE, Target Tissue: Type of Lesion: STOMACH: ADENOCARCINOMA, Dose [Carcinogen]: 50 UG/ML IN DRINKING WATER FOR 25 WK): 12/19 (63%), 10/20 (50%), 21%, not calculated
